# Reference: patent US9675591B2, “Methods for treating seizure disorders and pain” (THE REGENTS OF THE UNIVERSITY OF CALIFORNIA, priority 2013, dated 2017)
# “Also recorded” adds a separate entry of the source.
# Legend:
# 6 Hz seizures = assay: 6 Hz seizure test, compounds given i.p. as solution; type: in vivo; conditions: Mus musculus, ip, 10 min, mice, values stated uncertain
# Description: (§1) The mouse maximal electroshock (MES) and 6 Hz seizure models were used. Motor toxicity was assessed using a modification of the horizontal screen test. ED50 values in the seizure models and TD50 values in the toxicity test were determined by nonlinear fitting of dose-response curves. […] Drugs solutions were injected intraperitoneally 10 min prior to administration of the electrical stimulus in a volume of 10 ml/kg body weight.
# MES-induced seizures = assay: MES seizure test, CF-1 mice, compounds given i.p. as solution; type: in vivo
# Description: MES assays were performed at the Department of Neurology at the University of California with CF-1 mice. This study was approved by the University of California, Davis, Animal Use and Care Committee and conducted in accordance with the guidelines of Animal Use and Care of the National Institutes of Health and the University of California. For these assays, stock solutions of SKA-19 (5 mg/ml) were prepared in 5% CremophorEL (Sigma-Aldrich, St. Louis, Mo., USA) and 95% saline, diluted further with saline, and SKA-19 was administered i.p. in a volume of 10 ml/kg body weight. Animals were subjected to a 0.2-s, 60-Hz electrical stimulus through corneal electrodes (5 mm diameter stainless steel balls). The electroshock unit was adjusted to deliver a constant current of 50 mA. Immediately before stimulation, the corneal electrodes were wetted with saline to provide good electrical contact. Animals failing to show tonic hindlimb extension were scored as protected (Kokate et al., 1994).
# as §1
# CA1 pyramidal neurons = assay: Hippocampal slice recordings; type: cell-based, mouse; conditions: for effect on AP firing: 1-s 150-pA current injection
# Description: Brain slice preparation was approved by the University of California, Irvine, Institutional Animal Care and Use Committee. Male C57BL/6 J mice (postnatal day 23) were anesthetized with halothane, decapitated, and brains transferred to an ice-cold, sucrose artificial cerebral spinal fluid (ACSF; Sigma-Aldrich). Hippocampal slices (300 μm) were prepared using a Leica VT1200S vibrating blade microtome (Leica Microsystems Inc., Buffalo Grove, Ill.). Slices were incubated at 33° C. in oxygenated (95% O2, 5% CO2) standard ACSF containing the following (mM) for at least 1 h before recordings: 126 NaCl, 2.5 KCl, 1.25 NaHPO4, 1.2 MgSO4, 10 glucose, 1.2 CaCl2, and 26 NaHCO3. Slices were submerged and continuously perfused at 2 ml/min with oxygenated ACSF at 33° C. during the current-clamp experiments. Voltage-clamp experiments were performed in the same ACSF but with 1 mM tetraethylammonium chloride (Sigma-Aldrich) and 0.5 μM tetrodotoxin (Sigma-Aldrich) added. Pyramidal CA1 neurons were visualized and identified with an upright microscope (Zeiss Axioskop Plus; Zeiss Jena, Germany) with infrared differential interference contrast optics. Recording pipettes (2-5 MΩ) were filled with intracellular solution containing (in mM): 126 K-gluconate; 4 KCl; 10 HEPES; 2 Mg-adenosine triphosphate; 0.3 Tris-guanosine triphosphate; 10 phosphocreatine, pH 7.20, 270-290 mOsm. In the current-clamp mode, depolarizing current pulses were applied from a membrane potential of −65 mV to evoke tonic firing activity. In the voltage-clamp mode, neurons were held at −55 mV and KCa currents elicited by 50-ms voltage steps to 10 mV, applied every 10 s. SKA-19 or NS309 were perfused for 10 min into the bath to allow for equilibrium. Recordings were performed in the whole-cell mode using a MultiClamp 700B amplifier (Molecular Devices), […] and sampled at 20 kHz with a Digidata 1322A digitizer (Molecular Devices). Data were acquired and analyzed with pClamp 10.2 software (Molecular Devices).
# [1] = Plasma protein binding by ultrafiltration; type: in vitro ADME; conditions: rat plasma
# Description: For intravenous application, SKA-19 was dissolved at 5 mg/mL in a mixture of 10% CremophorEL (Sigma-Aldrich, St. Louis, Mo., USA) and 90% phosphate-buffered saline and then injected at 10 mg/kg into the tail vein of Sprague-Dawley rats. At various time points after the injection, ˜100 to 200 μL of blood was collected from a tail nick into EDTA blood sample collection tubes. Plasma was separated by centrifugation and stored at −80° C. pending analysis. For intraperitoneal application SKA-19 was dissolved in Miglyol 812 neutral oil (caprylic/capric triglyceride; Trade name Neobee M5, Spectrum Chemicals, Gardena, Calif., USA) at 2 mg/mL and injected intraperitoneally at 10 and 30 mg/kg. After determining that SKA-19 plasma concentrations peaked 2 h after i.p. application, a group of 3 rats was subjected to cardiac puncture under deep isoflurane anesthesia and then sacrificed before removing brain, heart, liver, spleen and fat. Tissue samples were homogenized in 1 ml of H2O with a Brinkman Kinematica PT 1600E homogenizer and the protein precipitated with 1 ml of acetonitrile. The samples were then centrifuged at 3000 rpm and supernatants concentrated to 1 ml. Plasma and homogenized tissue samples were purified using C18 solid phase extraction cartridges. Eluted fractions corresponding to SKA-19 were dried under nitrogen and reconstituted in acetonitrile. […] Using electrospray ionization MS and selective reaction monitoring (SRM) (capillary temperature 350° C., capillary voltage 4000 V, collision energy −26 eV, positive ion mode), SKA-19 was quantified by its base peak of 182.9 m/z (C7H7N2S2^•+ fragment) and its concentration was calculated with a 9-point calibration curve from 50 nmol/L to 10 μmol/L. The percentage of plasma protein binding for SKA-19 was determined by ultrafiltration. […] The centrifugate (=free SKA-19) was directly analyzed for SKA-19 by UPLC-MS. […]
smiles,measurement,setting,value
"Nc1nc2ccc(SC(F)(F)F)cc2s1 [SKA-19, 6-((trifluoromethyl)thio)benzo[d]thiazol-2-amine]",ED50,6 Hz seizures,22.5 mg/kg
same,duration of full protection,MES-induced seizures; 10 mg/kg i.p. as solution,2.5 h
same,duration of significant seizure protection,MES-induced seizures; 5 and 6 mg/kg i.p. as solution,at least 90 min
same,duration of protective activity,"MES-induced seizures; MES test, 10 mg/kg i.p. as solution",up to 4 h
same,ED50,"MES-induced seizures; Mus musculus, ip, 10 min, i.p. as solution, 10 min time point, read-out: ED50, seizure protection in the MES test",4.93 mg/kg
same,onset of protection from seizures after application,MES-induced seizures; i.p. as solution,≤ 5 min
same,protective index PI (TD50/ED50),"MES-induced seizures; i.p. as solution, 10 min time point",3.2
same,effect on AP firing,CA1 pyramidal neurons; 1 μM,slowed down AP firing
same,reduction of the number of spikes,"CA1 pyramidal neurons; 10 μM, all injected current levels",roughly 50%
same,after-hyperpolarization amplitude of individual APs,"CA1 pyramidal neurons; 10 μM, current-clamp",increase in after-hyperpolarization amplitude
same,effect on AP firing,CA1 pyramidal neurons; 25 μM,completely suppressed
same,mAHP current amplitude,"CA1 pyramidal neurons; voltage-clamp, 10 μM",modest but significant increase; also recorded: increases the amplitude
same,fraction unbound,[1],0.11 to 0.18
same,fraction unbound at 15 min,[1],0.11
same,unbound (free) fraction,[1],9.0±0.4%
